Data taken from publication PMC5657534 (Nature chemical biology, 2017).

Biological target: ClbH (full-length) (Escherichia coli, UniProt Q0P7J8)
Test: ATP-[…]PPi exchange
Assay type: biochemical
Details: Mg2+, pH 8.3, room temperature, 1 mM amino acid

ClbH (full-length), sequence (Q0P7J8 1-1598): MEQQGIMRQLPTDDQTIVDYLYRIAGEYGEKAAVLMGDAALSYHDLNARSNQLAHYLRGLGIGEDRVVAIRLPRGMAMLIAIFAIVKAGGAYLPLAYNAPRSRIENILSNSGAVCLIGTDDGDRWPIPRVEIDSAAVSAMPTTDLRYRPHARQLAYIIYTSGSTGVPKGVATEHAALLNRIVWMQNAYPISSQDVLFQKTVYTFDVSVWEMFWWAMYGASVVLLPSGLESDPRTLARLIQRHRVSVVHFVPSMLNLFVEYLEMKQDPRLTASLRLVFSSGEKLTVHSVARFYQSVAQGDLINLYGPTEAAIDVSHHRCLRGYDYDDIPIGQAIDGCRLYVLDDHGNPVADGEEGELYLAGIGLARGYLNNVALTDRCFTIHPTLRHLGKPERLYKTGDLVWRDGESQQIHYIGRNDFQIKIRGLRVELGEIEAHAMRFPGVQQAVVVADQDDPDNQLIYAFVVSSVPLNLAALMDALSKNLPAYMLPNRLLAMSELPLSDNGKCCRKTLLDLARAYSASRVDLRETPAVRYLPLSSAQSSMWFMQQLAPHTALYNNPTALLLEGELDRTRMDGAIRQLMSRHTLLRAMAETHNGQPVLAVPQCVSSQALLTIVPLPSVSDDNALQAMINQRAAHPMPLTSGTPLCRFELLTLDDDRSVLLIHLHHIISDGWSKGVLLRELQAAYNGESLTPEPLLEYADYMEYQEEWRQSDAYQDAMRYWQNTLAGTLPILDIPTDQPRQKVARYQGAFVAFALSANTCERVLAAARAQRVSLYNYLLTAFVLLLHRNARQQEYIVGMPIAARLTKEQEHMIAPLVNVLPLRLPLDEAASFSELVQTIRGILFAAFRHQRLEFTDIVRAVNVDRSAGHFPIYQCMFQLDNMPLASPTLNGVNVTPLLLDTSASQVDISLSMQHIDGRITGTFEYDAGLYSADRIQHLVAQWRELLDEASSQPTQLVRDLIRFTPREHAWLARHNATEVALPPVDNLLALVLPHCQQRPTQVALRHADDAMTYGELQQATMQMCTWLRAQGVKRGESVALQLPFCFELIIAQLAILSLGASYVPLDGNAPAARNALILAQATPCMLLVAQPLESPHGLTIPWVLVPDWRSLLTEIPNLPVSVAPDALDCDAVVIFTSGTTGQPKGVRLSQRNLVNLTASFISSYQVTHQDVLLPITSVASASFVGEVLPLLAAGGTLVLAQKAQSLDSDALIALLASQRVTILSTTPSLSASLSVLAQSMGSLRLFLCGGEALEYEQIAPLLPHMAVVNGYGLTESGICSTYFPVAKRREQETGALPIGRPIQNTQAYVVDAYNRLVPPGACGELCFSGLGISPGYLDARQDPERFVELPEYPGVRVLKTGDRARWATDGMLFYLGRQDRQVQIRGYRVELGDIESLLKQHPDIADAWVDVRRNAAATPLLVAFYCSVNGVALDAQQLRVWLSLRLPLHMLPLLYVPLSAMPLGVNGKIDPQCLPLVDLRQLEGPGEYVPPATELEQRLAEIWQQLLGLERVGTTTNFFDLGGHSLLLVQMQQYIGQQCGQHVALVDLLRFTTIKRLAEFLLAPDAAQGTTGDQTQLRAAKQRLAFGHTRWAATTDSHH

For N[C@@H](CO)C(=O)O [L-Ser], the “ATP-[32P]PPi exchange” value was “full-length ClbH activated L-Ser and SAM (Fig. 1b)”.
